Where two headings read alike, the source gives them in different places.
How the values were obtained:
thrombin = thrombin (Bos taurus, UniProt P00735); test: thrombin inhibition assay (Ki, Example 5); assay type: biochemical, bovine plasma; parameters: Thrombin: N-p-tosyl-Gly-Pro-Arg-pNA (from Sigma) was used at 0.5 mM concentration; from tissue; host or cells: bovine plasma
Method: (§1) The reaction progress curves were recorded by reading the plates, typically 60 times with 30 second to 2 minute intervals. Initial rates were determined by unweighted nonlinear least-squares fitting to a first order reaction in GraFit (Erithacus Software Limited, London, England).
Seven sequential dilutions were made from the first point for the assay.

Factor X [1] = test: Factor X inhibition assay (Ki), source of enzyme not stated; assay type: biochemical; conditions: ratio of Ki of an enzyme to the Ki of thrombin
tryptase = tryptase inhibition assay (Ki, Example 5); assay type: biochemical, human lung
Method: as §1
Tryptase: 0.1 M tris, 0.2 M NaCl, 0.1 mg/ml heparin, pH=8.0 was utilized as buffer. […] From this point seven more dilutions were made for the assay.

factor VII = molecular target: T1, factor VII (Homo sapiens, UniProt P08709); test: Factor VII inhibition assay (Ki, Example 5); assay type: biochemical
T1 construct: human Factor VIIa (FVIIa)
T1 sequence (P08709 61-212 limits assumed): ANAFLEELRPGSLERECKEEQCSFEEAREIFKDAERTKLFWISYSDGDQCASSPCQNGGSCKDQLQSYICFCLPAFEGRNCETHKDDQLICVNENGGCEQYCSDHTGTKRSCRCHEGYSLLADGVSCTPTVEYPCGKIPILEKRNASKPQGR
T1 sequence (P08709 213-466 limits assumed): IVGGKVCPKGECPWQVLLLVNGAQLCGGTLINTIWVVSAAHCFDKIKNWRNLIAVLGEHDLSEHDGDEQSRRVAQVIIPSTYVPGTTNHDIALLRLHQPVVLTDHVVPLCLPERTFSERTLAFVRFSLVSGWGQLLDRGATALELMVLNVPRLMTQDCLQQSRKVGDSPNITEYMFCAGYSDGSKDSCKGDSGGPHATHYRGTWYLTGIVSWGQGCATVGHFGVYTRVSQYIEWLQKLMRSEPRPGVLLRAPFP
Method: as §1
From this concentration point seven more sequential dilutions were made for the assay.

trypsin = molecular target: T2, trypsin (Bos taurus, UniProt P00760); test: trypsin inhibition assay (Ki, Example 5); assay type: biochemical, bovine pancreas
T2 construct: from tissue; host or cells: bovine pancreas
T2 sequence (P00760 24-246): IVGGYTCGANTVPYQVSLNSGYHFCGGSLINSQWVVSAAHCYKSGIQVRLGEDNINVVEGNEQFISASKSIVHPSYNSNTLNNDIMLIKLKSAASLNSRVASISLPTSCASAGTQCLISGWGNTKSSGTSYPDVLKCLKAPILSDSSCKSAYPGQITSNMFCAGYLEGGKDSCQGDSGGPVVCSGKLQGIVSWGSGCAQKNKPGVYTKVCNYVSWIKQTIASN
Method: as §1

Factor XI = Factor XI (Homo sapiens, UniProt P03951); test: Factor XI inhibition assay (Ki); assay type: biochemical
papain = papain (Carica papaya, UniProt P00784); test: papain inhibition assay
leucine aminopeptidase M = molecular target: T3, leucine aminopeptidase M (Sus scrofa, UniProt P15145); test: leucine aminopeptidase M inhibition assay; assay type: biochemical
T3 construct: purchased Sigma

thermolysin = thermolysin (Bacillus thermoproteolyticus, UniProt P00800); test: thermolysin inhibition assay; assay type: biochemical
factor X [2] = molecular target: T4, factor X (Bos taurus, UniProt P00743); test: Factor X inhibition assay (Ki, Example 5), bovine plasma enzyme; assay type: biochemical; conditions: footnote e: bovine plasma
T4 construct: bovine factor Xa (from Sigma); from tissue; host or cells: bovine plasma
Method: All inhibition assays were performed at room temperature in 96 well microplates using Bio-Rad microplate reader (Model 3550). […] The hydrolysis of chromogenic substrates was monitored at 405 nm. The reaction progress curves were recorded by reading the plates, typically 60 times with 30 second to 2 minute intervals. Initial rates were determined by unweighted nonlinear least-squares fitting to a first order reaction in GraFit (Erithacus Software Limited, London, England).
Factor X: Buffer and substrate were the same as used for thrombin assay. A 1:100 dilution was made -in the pH8.0 tris buffer to serve as the first point. Seven more dilutions from the first were made for the assay.

control plasma = test: prothrombin time (PT) in control plasma; assay type: biochemical
Method: Then 200 µl of prewarmed (at 37°C for ∼10 minutes) thromboplastin with calcium (from Sigma) was rapidly added into the plasma sample. […]

thioredoxin = test: block of insulin disulfide reduction by thioredoxin (turbidity at 650 nm); assay type: biochemical; conditions: 8 µM thioredoxin, 0-100 µM compound, 60 minutes
bovine factor Xa = molecular target: T5, bovine factor Xa (Bos taurus, UniProt P00743); test: Factor X inhibition assay (IC50, Example 4); assay type: biochemical; conditions: Factor X; read-out: IC50
T5 construct: bovine factor Xa (from Sigma); purchased Sigma
Method: All inhibition assays of this experiment were performed at room temperature in 96 well microplates using a Bio-Rad microplate reader (Model 3550). […] This solution (2.05 mM) served as the stock solution for all the inhibition assays. The hydrolysis of chromogenic substrates was monitored at 405 nm. The reaction progress curves were recorded by reading the plates typically 90 times with 30 seconds to 2 minute intervals. The initial rate were determined by unweighted nonlinear least-squares fitting to a first order reaction in GraFit.
In the Factor X assay, buffer and substrate are the same as used for thrombin assay. A 1:100 dilution was made into pH 8.4 Tris buffer to serve as the first point. Seven dilutions with a dilution factor of 2 were made. The assay protocol is the same as for thrombin except 25 nM of bovine factor Xa (from Sigma) in pH 8.4 Tris buffer was used instead of thrombin.

[3] = molecular target: T6, human Factor VIIa (FVIIa) (Homo sapiens, UniProt P08709); test: Factor VII assay: hydrolysis of the mimetic as proteolytic substrate; assay type: biochemical; conditions: relative to (D)FPR-PNA control
T6 construct: human Factor VIIa (FVIIa)
Method: (§2) Both the thrombin and Factor VII assays of this experiment were carried out at 37°C using a Hitachi UV/Vis spectrophotometer (model U-3000). Structure (11b) was dissolved in deionized water. The concentration was determined from the absorbance at 342 nm. […] Initial velocities were calculated from the initial linear portion of the reaction progress curve. Kinetic parameters were determined by unweighted nonlinear least-squares fitting of the simple Michaelis-Menten equation to the experimental data using GraFit (Version 3.0, Erithacus Software Limited).
For the Factor VII assay, pH 8.0 Tris buffer (0.05 M Tris, 5 mM CaCl2, 0.15 M NaCl, 0.1% TWEEN 20, 0.1% BSA) was used. 10 µl of 20 µM human Factor VIIa (FVIIa) and 22 µM of human tissue factor (TF) was brought to assay buffer to make 160 nM FVIIa and TF solutions, respectively. […] The initial 3 minutes reaction progress curves were recorded. […] The kcat/KM was calculated from the slope and found to be 17,500 M^-1s^-1.
(§3) In both the thrombin and Factor VII assay of this experiment, (D)FPR-PNA was run as a control.

bovine thrombin = molecular target: T7, bovine thrombin (Bos taurus, UniProt P00735); test: thrombin assay: hydrolysis of the mimetic as proteolytic substrate; assay type: biochemical
T7 construct: bovine thrombin (from Sigma); purchased Sigma
Method: as §2
For the thrombin assay, experiments were performed in pH 8.4 Tris buffer (Tris, 0.05M; NaCl, 0.15M). 6.4 NIH units of bovine thrombin (from Sigma) were dissolved into 10 ml of the assay buffer to yield 10 nM thrombin solution. […] The first two minutes of the reactions were recorded for initial velocity determination.
as §3

[4] = molecular target: thrombin-thrombomodulin complex (Bos taurus, UniProt P00735); test: thrombin-thrombomodulin complex inhibition assay (Ki); assay type: biochemical; conditions: thrombin preincubated with 4 nM thrombomodulin, read-out: Ki (M) T.T.C.
APC = molecular target: T8, APC (Homo sapiens, UniProt P04070); test: activated protein C inhibition assay (Ki, Example 5); assay type: biochemical, human plasma
T8 construct: from tissue; host or cells: human plasma

Plasmin = Plasmin (Bos taurus, UniProt P06868); test: plasmin inhibition assay (Ki, Example 5); assay type: biochemical, bovine plasma; parameters: Plasmin: Buffer (see thrombin assay); from tissue; host or cells: bovine plasma
Method: as §1

t-PA = t-PA (Homo sapiens, UniProt P00750); test: t-PA inhibition assay (Ki, Example 5); assay type: biochemical
Method: as §1

[5] = substrate hydrolysis, pH 8.4 Tris buffer, 37°C

Factor XI, sequence (P03951 388-625 limits assumed): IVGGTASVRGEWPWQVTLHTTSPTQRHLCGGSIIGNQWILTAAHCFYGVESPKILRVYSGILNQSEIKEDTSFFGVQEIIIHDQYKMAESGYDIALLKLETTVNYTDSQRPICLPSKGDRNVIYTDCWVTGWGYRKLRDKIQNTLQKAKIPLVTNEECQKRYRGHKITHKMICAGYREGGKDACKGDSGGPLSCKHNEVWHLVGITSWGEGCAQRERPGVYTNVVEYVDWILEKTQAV
Factor XI, sequence (P03951 19-387 limits assumed): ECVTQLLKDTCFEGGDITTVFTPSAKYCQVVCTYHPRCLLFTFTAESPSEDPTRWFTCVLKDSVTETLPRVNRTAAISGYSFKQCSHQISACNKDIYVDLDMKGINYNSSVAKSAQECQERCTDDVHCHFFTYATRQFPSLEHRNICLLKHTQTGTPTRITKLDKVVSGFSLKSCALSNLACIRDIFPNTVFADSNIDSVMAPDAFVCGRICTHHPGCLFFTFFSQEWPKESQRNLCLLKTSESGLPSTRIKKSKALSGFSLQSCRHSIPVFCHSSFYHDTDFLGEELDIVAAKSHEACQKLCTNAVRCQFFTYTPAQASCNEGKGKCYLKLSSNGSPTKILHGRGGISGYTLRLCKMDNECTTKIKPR
T4 sequence (P00743 41-180 limits assumed): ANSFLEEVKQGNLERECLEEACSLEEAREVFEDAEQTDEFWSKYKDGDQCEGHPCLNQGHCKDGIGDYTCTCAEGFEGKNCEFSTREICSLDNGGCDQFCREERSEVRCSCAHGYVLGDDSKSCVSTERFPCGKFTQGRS
T4 sequence (P00743 234-492 limits assumed): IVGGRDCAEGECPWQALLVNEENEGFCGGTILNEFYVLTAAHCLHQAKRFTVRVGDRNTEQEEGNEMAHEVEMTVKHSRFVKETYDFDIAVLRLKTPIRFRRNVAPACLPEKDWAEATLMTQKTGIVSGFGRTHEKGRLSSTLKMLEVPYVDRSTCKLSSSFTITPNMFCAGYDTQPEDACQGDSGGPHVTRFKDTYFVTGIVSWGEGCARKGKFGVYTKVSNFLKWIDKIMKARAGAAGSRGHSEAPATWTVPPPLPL
T6 sequence (P13726 33-295 partner, one chain of several): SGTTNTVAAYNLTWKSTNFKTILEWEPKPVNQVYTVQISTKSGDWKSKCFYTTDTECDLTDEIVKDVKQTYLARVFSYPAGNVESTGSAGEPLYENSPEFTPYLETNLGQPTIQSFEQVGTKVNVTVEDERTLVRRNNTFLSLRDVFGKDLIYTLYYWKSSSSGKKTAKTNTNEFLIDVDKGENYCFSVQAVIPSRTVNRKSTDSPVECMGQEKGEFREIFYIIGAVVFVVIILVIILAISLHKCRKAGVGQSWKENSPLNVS
T5 sequence (P00743 41-180 limits assumed): as the sequence (P00743 41-180 limits assumed) above
T5 sequence (P00743 234-492 limits assumed): as the sequence (P00743 234-492 limits assumed) above
papain, sequence (P00784 134-345): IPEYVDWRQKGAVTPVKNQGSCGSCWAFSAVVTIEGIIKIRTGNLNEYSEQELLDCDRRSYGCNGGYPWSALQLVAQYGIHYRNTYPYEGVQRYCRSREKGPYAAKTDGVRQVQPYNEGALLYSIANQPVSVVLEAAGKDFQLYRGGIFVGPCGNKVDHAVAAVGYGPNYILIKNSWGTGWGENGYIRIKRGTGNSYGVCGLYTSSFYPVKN
thermolysin, sequence (P00800 233-548, species assumed): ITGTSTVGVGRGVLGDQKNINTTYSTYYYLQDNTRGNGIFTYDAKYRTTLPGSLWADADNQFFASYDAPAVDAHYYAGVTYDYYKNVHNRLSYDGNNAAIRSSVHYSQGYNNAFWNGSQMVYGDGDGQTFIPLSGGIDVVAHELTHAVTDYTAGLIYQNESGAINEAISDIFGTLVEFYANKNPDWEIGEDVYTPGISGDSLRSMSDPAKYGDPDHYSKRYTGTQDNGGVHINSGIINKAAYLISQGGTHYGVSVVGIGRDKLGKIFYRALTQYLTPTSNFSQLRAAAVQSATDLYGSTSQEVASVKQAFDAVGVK
t-PA, sequence (P00750 36-562): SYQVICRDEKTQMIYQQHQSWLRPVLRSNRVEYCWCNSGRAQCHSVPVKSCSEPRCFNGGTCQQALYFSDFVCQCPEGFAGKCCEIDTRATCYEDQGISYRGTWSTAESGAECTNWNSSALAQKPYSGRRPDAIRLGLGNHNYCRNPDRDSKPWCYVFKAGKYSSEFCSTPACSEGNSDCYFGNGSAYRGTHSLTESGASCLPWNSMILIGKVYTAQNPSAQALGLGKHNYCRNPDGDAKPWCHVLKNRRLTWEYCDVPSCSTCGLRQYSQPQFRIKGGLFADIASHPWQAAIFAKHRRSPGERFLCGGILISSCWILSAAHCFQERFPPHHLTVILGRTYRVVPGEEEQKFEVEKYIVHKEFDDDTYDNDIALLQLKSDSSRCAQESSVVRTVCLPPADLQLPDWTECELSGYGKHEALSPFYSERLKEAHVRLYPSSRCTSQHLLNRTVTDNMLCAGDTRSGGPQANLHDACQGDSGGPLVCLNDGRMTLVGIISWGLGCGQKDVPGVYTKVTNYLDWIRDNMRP
T3 sequence (P15145 whole entry): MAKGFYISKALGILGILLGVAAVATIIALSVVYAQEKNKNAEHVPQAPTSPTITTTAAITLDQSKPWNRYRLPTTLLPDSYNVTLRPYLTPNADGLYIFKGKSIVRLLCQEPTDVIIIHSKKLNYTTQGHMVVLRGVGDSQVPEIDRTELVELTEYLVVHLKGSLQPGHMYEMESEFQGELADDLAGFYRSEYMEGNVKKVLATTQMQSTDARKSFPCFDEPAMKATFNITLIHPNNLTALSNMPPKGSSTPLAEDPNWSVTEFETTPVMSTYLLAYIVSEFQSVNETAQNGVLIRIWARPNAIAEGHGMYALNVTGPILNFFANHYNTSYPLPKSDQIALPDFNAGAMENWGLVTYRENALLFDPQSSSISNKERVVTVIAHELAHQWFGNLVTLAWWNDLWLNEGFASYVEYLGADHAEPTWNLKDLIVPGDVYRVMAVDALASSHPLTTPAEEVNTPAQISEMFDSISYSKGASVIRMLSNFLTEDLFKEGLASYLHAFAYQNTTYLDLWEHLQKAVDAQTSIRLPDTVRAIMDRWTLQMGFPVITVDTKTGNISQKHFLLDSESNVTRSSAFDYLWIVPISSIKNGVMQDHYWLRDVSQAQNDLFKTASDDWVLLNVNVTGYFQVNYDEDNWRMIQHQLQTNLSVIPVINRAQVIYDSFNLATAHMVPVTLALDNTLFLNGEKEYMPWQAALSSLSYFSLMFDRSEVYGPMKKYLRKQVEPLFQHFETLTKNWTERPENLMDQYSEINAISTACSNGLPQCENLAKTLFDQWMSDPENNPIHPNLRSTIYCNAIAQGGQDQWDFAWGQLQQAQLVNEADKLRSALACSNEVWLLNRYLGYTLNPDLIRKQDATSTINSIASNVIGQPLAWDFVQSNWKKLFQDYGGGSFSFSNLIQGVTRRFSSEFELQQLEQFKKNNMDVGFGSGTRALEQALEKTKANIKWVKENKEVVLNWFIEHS
T8 sequence (P04070 43-197 limits assumed): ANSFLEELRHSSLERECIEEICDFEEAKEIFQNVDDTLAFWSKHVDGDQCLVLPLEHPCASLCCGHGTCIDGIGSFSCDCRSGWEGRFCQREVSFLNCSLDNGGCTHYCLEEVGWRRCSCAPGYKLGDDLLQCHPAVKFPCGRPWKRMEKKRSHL
T8 sequence (P04070 212-461 limits assumed): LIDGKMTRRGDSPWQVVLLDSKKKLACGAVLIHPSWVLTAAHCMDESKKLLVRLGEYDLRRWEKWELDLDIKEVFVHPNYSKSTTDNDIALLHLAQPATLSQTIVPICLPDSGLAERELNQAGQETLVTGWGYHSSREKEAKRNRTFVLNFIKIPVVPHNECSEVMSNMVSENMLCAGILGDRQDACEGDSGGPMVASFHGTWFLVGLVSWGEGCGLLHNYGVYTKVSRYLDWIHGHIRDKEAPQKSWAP
Plasmin, sequence (P06868 104-583 limits assumed): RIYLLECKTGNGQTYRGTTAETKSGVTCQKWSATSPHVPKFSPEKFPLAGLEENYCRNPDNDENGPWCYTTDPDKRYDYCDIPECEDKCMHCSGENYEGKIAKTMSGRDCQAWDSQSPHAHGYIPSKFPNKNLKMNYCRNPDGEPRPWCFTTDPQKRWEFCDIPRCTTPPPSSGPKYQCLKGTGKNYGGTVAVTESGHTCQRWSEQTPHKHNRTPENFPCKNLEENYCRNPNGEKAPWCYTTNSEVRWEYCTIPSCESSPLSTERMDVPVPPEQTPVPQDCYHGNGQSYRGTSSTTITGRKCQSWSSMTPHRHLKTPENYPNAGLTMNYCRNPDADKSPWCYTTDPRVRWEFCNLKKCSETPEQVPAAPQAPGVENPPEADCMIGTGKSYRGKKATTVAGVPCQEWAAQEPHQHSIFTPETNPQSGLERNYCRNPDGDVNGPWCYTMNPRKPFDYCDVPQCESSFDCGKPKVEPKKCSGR
Plasmin, sequence (P06868 584-812 limits assumed): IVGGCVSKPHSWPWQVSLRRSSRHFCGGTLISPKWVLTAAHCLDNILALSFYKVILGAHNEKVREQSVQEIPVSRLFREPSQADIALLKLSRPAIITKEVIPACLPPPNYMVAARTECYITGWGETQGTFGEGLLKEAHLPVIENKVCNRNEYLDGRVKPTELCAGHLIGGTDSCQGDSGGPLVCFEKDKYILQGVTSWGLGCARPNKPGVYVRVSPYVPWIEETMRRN

N=C(N)NCCC[C@H](NC(=O)[C@@H]1CCN2CC[C@@](N)(Cc3ccccc3)C(=O)N12)C(=O)C(=O)NCCc1ccc(Cl)cc1 [Structure (39)]
Ki (thrombin): 0.31 nM

N=C(N)NCCCC(NC(=O)C1CCC2CCC(N)(Cc3ccccc3)C(=O)N21)C(=O)c1nc2ccccc2s1 (stereo not drawn) [(29b)]
Selectivity (Factor X [1]): 227
Selectivity (tryptase; Tryptase, ratio of Ki of an enzyme to the Ki of thrombin): 106
Ki (tryptase; tryptase, read-out: Ki): 9e-09 M

N=C(N)NC(=O)NC[C@H](NC(=O)[C@@H]1CCN2CC[C@@](N)(Cc3ccccc3)C(=O)N12)C(=O)c1nc2ccccc2s1 [Structure (51)]
Ki (factor VII): 4260 nM
Ki (thrombin): 7.25 nM
Ki (trypsin): 37.9 nM
Ki (Factor XI): 1730 nM

N=C(N)NCCCC(NC(=O)C1CCC2CCC(N)(Cc3ccccc3)C(=O)N21)C(=O)c1nc2ccccc2s1 (stereo not drawn) [Structure (29b)]
Ki (tryptase; read-out: Ki (M) Tryptase): 9e-09 M

COC(=O)c1cccc2c1C(=O)N([C@@H](CC(C)C)C(=O)NO)C2=O [Structure (234)]
IC50 (papain): 8000 nM
Ki (leucine aminopeptidase M): 11000 nM
Ki (thermolysin): 6000 nM

N=C(N)NCCC[C@H](NC(=O)[C@@H]1CCN2CC[C@@](N)(Cc3ccccc3)C(=O)N12)C(=O)c1nccs1 [Structure (47)]
Ki (factor VII): 968 nM
Ki (factor X [2]): 1500 nM
Ki (trypsin): 1.9 nM

N=C(N)NCCC[C@H](NC(=O)[C@@H]1CCCN1C(=O)[C@H](N)Cc1ccccc1)C(=O)CCl [PPACK, (D)FPR-CH2Cl, reference compound]
PT (control plasma; Concentration 500 pM): 15 s
PT (control plasma; Concentration 1 nM): 18 s
PT (control plasma; Concentration 10 nM): 22 s
PT (control plasma; Concentration 20 nM): 25 s
PT (control plasma; Concentration 40 nM): 28 s
PT (control plasma; Concentration 60 nM): 30 s
PT (control plasma; Concentration 80 nM): 31 s

CC1=C2[C@H]3OC(=O)[C@@H](C)[C@@H]3CC[C@@]2(C)C=CC1=O [Santonin]
thioredoxin-induced turbidity of insulin (thioredoxin): did not block thioredoxin-induced turbidity of insulin

N=C(N)NCCC[C@H](NC(=O)[C@@H]1CCN2CC[C@@](N)(Cc3ccccc3)C(=O)N12)C(=O)C(=O)NCCc1ccccc1 [Structure (35)]
Ki (factor VII): 16.4 nM
Ki (factor X [2]): 345 nM
Ki (trypsin): 0.027 nM

COc1ccc(CCNC(=O)C(=O)[C@H](CCCNC(=N)N)NC(=O)[C@@H]2CCN3CC[C@@](N)(Cc4ccccc4)C(=O)N23)cc1 [Structure (41)]
Ki (thrombin): 0.45 nM

N=C(N)NCCC[C@H](NC(=O)[C@@H]1CCN2CC[C@@](N)(Cc3ccccc3)C(=O)N12)C(=O)C(=O)NCc1ccccc1 [Structure (37)]
Ki (thrombin): 0.0732 nM
Ki (trypsin): 0.0773 nM

N=C(N)NCCC[C@H](NC(=O)[C@@H]1CCN2CC[C@@](N)(Cc3ccccc3)C(=O)N12)C(=O)CCl [(13b)]
IC50 (bovine factor Xa): 385 ± 17 nM
PT (control plasma; Concentration 1 pM): 13 s
PT (control plasma; Concentration 10 pM): 17 s
PT (control plasma; Concentration 50 pM): 18 s
PT (control plasma; Concentration 100 pM): 23 s
PT (control plasma; Concentration 200 pM): 24 s
PT (control plasma; Concentration 500 pM): 27 s
PT (control plasma; Concentration 1 nM): 30 s
PT (control plasma; Concentration 10 nM): 31 s
PT (control plasma; Concentration 30 nM): 31 s
PT (control plasma; Concentration 50 nM): 30 s
PT (control plasma; Concentration 80 nM): 33 s

N=C(N)NCCC[C@H](NC(=O)[C@@H]1CCN2CC[C@@](N)(Cc3ccccc3)C(=O)N12)C(=O)Nc1ccc([N+](=O)[O-])cc1 [(11b)]
Activity compared to the control [3]: 1.38
Km (bovine thrombin; [5]): 3 µM
kcat (bovine thrombin; [5]): 50 s⁻¹
Activity compared to the control (bovine thrombin; thrombin, relative to (D)FPR-PNA control): 0.76

COC(=O)c1c[nH]c(C(=O)[C@H](CCCNC(=N)N)NC(=O)[C@@H]2CCN3CC[C@@](N)(Cc4ccccc4)C(=O)N23)n1 [Structure (45)]
Ki [4]: 6.9e-09 M
Ki (factor VII): 29600 nM
Ki (APC): 25600 nM
Ki (Plasmin): 23800 nM
Ki (thrombin): 5.4 nM
Ki (tryptase; read-out: Ki (M) Tryptase): 1.65e-06 M
Ki (trypsin): 52.4 nM
Ki (Factor XI): 1240 nM
Ki (t-PA): 17200 nM

Source: patent EP1053246B1, “BETA-SHEET MIMETICS AND METHODS RELATING TO THE USE THEREOF” (MOLECUMETICS, LTD., priority 1998, dated 1999)
